The target in assay [1] is T1, human VEGF receptor (VEGFR-2) (Homo sapiens, UniProt P35968).
T1 construct: The cytoplasmic domain of the human VEGF receptor (VEGFR-2) was expressed; His; made in house; host or cells: insect cells (baculovirus)
Kind of assay: VEGFR2 kinase assay. The assay is classed as biochemical. Particulars: His-VEGFR-2 cytoplasmic domain, 3.6 μM ATP; Table IV, amide or urea linker; read-out: VEGFR2 Enzyme IC50. The essentials:
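His-tagged VEGFR-2 cytoplasmic domain from baculovirus-infected insect cells phosphorylating plate-bound poly-Glu-Tyr (4:1). IC50 from blank-subtracted optical density versus compound concentration.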

For another assay, the target named is VEGFR1 (Homo sapiens, UniProt P17948). Kind of assay: VEGFR1 enzyme assay. The note with it: Table IV, amide or urea linker. In kind it is biochemical.
A further assay has as its target VEGFR2 (Homo sapiens, UniProt P35968). Kind of assay: VEGF stimulated Ca++ signal in vitro (FLIPR).
The target of assay [2] is T2, PDGFβ (Homo sapiens, UniProt P09619). As to the kind of experiment: PDGFβ enzyme assay. Particulars: Table IV, amide or urea linker. The assay is classed as biochemical.
In assay [3] the target is T2, PDGFβ. As to the kind of experiment: PDGF stimulated Ca2+ signal in vitro (FLIPR). The assay is classed as cell-based. Also on record: host or cells: NHDF-Ad (normal human dermal fibroblasts). Particulars: NHDF-Ad, PDGF stimulation 10 ng/mL; Table IV, amide or urea linker; read-out: PDGFβ Cellular IC50.

Each structure is given as a SMILES string.

IC50 data for 19 molecules are collected here from patent US8906944B2, “Compounds as tyrosine kinase modulators” (Allergan, Inc., priority 2009, dated 2014).

T2 sequence (P09619 33-1106): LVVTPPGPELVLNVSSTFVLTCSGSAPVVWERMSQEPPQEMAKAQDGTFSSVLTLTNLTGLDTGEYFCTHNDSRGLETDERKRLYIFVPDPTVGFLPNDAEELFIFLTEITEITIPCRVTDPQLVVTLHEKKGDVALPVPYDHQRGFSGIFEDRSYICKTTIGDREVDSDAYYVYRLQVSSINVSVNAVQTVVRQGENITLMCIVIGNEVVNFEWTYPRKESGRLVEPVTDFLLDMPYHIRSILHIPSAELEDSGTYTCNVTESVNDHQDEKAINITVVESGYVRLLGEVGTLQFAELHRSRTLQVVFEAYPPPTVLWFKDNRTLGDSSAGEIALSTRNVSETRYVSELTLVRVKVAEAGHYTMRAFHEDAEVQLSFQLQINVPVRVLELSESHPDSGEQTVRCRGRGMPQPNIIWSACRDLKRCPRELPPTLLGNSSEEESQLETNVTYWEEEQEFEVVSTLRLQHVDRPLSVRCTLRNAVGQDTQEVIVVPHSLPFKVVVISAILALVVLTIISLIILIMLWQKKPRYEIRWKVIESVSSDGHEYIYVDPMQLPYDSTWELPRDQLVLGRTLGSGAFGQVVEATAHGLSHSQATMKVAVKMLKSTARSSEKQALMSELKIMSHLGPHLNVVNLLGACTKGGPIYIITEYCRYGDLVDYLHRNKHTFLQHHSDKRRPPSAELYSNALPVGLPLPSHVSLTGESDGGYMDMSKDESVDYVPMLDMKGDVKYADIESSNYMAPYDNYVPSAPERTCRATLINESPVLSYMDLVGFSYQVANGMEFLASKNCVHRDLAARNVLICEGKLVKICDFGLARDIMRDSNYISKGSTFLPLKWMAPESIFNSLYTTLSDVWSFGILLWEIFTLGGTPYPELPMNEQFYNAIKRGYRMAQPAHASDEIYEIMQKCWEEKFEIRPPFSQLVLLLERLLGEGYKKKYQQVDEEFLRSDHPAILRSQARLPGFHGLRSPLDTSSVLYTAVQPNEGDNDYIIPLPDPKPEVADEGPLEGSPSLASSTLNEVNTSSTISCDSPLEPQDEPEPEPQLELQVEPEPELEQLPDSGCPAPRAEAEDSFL
Sequence of VEGFR2 (P35968 20-1356): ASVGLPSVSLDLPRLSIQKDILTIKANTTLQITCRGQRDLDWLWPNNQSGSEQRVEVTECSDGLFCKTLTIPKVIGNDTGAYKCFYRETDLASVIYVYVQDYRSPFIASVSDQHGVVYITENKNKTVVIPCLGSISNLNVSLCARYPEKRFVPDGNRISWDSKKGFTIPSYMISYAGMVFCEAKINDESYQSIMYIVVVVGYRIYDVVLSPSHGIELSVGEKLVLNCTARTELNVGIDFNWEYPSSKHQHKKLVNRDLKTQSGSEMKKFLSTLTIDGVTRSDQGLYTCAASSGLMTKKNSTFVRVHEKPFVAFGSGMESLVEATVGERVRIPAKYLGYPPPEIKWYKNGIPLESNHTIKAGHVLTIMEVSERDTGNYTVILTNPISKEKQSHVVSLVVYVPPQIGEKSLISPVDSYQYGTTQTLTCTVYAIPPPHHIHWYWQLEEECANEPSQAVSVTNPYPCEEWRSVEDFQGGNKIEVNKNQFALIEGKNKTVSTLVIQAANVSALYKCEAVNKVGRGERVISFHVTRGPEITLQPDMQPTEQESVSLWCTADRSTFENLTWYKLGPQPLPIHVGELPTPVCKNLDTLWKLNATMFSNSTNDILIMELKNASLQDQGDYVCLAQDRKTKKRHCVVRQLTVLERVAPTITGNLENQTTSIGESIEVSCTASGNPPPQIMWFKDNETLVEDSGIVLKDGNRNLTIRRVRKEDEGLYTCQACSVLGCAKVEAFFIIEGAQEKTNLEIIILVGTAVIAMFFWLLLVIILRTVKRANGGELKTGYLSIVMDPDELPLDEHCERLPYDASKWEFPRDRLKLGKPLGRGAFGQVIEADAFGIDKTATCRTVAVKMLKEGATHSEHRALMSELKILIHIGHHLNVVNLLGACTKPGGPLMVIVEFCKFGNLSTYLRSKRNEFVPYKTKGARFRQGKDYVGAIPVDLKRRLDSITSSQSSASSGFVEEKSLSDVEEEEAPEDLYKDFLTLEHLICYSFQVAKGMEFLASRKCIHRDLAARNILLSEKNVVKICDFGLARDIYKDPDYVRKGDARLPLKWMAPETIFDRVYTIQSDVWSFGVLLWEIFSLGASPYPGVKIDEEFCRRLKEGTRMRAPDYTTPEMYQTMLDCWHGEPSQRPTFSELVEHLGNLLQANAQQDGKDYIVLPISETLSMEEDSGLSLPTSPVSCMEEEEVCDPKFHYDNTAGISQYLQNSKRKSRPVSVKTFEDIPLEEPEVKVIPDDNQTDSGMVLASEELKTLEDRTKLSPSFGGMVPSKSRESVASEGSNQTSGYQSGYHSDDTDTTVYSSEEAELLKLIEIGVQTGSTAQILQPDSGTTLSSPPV
T1 sequence (P35968 786-1356 limits assumed): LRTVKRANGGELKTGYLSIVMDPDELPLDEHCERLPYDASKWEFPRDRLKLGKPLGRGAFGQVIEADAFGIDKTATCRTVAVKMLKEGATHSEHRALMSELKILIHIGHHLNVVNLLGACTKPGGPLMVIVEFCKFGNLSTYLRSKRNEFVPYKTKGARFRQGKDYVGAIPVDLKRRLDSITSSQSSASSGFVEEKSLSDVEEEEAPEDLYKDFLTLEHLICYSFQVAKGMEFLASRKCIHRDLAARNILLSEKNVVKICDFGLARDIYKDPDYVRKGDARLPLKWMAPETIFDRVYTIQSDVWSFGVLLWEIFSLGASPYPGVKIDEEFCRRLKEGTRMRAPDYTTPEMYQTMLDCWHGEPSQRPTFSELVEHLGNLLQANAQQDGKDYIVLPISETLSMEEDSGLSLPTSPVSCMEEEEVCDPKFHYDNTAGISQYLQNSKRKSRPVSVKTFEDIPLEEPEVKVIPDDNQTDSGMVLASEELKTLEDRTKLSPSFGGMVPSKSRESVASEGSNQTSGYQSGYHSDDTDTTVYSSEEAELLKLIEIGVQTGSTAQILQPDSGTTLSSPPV
Sequence of VEGFR1 (P17948 27-1338, species assumed): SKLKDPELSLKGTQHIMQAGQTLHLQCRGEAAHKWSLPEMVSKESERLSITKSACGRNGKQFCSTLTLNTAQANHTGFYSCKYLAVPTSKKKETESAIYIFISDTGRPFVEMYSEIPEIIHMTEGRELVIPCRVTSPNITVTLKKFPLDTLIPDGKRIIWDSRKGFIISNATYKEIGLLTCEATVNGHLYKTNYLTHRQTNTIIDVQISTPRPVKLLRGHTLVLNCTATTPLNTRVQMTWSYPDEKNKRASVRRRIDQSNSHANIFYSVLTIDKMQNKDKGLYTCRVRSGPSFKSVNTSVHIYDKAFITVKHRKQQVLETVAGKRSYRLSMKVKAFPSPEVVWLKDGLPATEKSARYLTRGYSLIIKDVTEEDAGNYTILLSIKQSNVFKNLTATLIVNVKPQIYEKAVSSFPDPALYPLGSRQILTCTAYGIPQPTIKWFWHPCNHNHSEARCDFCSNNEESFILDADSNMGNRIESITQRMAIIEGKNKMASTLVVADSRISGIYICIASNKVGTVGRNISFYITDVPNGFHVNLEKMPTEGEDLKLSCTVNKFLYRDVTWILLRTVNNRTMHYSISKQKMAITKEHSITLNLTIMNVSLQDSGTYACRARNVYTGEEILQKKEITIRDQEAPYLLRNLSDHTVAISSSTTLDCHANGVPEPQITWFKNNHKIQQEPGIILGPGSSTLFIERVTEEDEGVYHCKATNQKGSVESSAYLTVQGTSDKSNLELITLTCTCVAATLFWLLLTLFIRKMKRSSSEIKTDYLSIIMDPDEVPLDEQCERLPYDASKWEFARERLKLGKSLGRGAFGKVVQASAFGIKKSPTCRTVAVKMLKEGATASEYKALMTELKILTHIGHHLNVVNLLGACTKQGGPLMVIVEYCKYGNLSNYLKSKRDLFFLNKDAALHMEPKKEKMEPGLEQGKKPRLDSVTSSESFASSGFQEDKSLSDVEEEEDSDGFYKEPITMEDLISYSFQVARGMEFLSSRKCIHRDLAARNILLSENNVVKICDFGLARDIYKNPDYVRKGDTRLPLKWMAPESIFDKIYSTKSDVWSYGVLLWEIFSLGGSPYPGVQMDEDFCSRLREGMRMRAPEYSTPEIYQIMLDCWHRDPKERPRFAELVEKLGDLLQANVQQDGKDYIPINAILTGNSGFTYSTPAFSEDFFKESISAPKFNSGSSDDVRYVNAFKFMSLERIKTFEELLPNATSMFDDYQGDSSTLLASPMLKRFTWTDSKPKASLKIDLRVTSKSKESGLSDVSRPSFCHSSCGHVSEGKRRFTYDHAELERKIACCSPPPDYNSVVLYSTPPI

Consider `CCOC(=O)N1CCN(CCCNC(=O)c2c[nH]c(-c3cc(Oc4ccc(NC(=O)Nc5cc(C)ccc5F)c(F)c4)ccn3)c2)CC1` [Example 172, ethyl 4-(3-{[(5-{4-[3-fluoro-4-({[(2-fluoro-5-methylphenyl)amino]carbonyl}amino)phenoxy]pyridin-2-yl}-1H-pyrrol-3-yl)carbonyl]amino}propyl)piperazine-1-carboxylate], for which the half-inhibitory concentration (IC50) in assay [1] worked out at 10 nM; on VEGFR1, 11 nM; against VEGFR2 it was 13 nM; on PDGFβ [2], 19 nM.

Regarding `COC(=O)CCNC(=O)c1c[nH]c(-c2cc(Oc3ccc(NC(=O)Nc4cc(C)ccc4F)c(F)c3)ccn2)c1` [Example 175, methyl 3-{[(5-{4-[3-fluoro-4-({[(2-fluoro-5-methylphenyl)amino]carbonyl}amino)phenoxy]pyridin-2-yl}-1H-pyrrol-3-yl)carbonyl]amino}propanoate], the figures for the half-inhibitory concentration (IC50) on PDGFβ [3] and on PDGFβ [2] were 32 nM and 34 nM, respectively.

In the case of `COC(=O)CCCNC(=O)c1c[nH]c(-c2cc(Oc3ccc(NC(=O)Nc4cc(C)ccc4F)cc3)ccn2)c1` [Example 176, methyl 4-{[(5-{4-[4-({[(2-fluoro-5-methylphenyl)amino]carbonyl}amino)phenoxy]pyridin-2-yl}-1H-pyrrol-3-yl)carbonyl]amino}butanoate], the 50% inhibitory concentration (IC50) at PDGFβ [3] stood at 78 nM; against PDGFβ [2] it was 38 nM.

As for `COC(=O)CNC(=O)c1c[nH]c(-c2cc(Oc3ccc(NC(=O)Nc4cc(C)ccc4F)c(F)c3)ccn2)c1` [Example 211, methyl {[(5-{4-[3-fluoro-4-({[(2-fluoro-5-methylphenyl)amino]carbonyl}amino)phenoxy]pyridin-2-yl}-1H-pyrrol-3-yl)carbonyl]amino}acetate], the IC50 in assay [1] was 9 nM; on VEGFR1, 8 nM; on VEGFR2, 3 nM; on PDGFβ [2] it was 12 nM.

On to `Cc1ccc(F)c(NC(=O)Nc2ccc(Oc3ccnc(-c4cc(C(=O)NCCCNC(=O)OC(C)(C)C)c[nH]4)c3)cc2F)c1` [Example 212, tert-butyl (3-{[(5-{4-[3-fluoro-4-({[(2-fluoro-5-methylphenyl)amino]carbonyl}amino)phenoxy]pyridin-2-yl}-1H-pyrrol-3-yl)carbonyl]amino}propyl)carbamate], for which the IC50 in assay [1] was determined as 13 nM; at VEGFR1, 20 nM; at VEGFR2 it was 6 nM; against PDGFβ [2], 45 nM.

Regarding `COC(=O)CN(CCCNC(=O)c1c[nH]c(-c2cc(Oc3ccc(NC(=O)Nc4cc(C)ccc4F)c(F)c3)ccn2)c1)CC(=O)OC` [Example 213, dimethyl 2,2′-[(3-{[(5-{4-[3-fluoro-4-({[(2-fluoro-5-methylphenyl)amino]carbonyl}amino)phenoxy]pyridin-2-yl}-1H-pyrrol-3-yl)carbonyl]amino}propyl)imino]diacetate], the 50% inhibitory concentration (IC50) is 9 nM in assay [1], 13 nM against VEGFR1, 3 nM against VEGFR2 and 38 nM on PDGFβ [2].

In the case of `COC(=O)CN(CCNC(=O)c1c[nH]c(-c2cc(Oc3ccc(NC(=O)Nc4cc(C)ccc4F)c(F)c3)ccn2)c1)CC(=O)OC` [Example 215, dimethyl 2,2′-[(2-{[(5-{4-[3-fluoro-4-({[(2-fluoro-5-methylphenyl)amino]carbonyl}amino)phenoxy]pyridin-2-yl}-1H-pyrrol-3-yl)carbonyl]amino}ethyl)imino]diacetate], the IC50 was 5 nM in assay [1], 13 nM on VEGFR1, 4 nM on VEGFR2 and 34 nM on PDGFβ [2].

For `Cc1ccc(F)c(NC(=O)Nc2ccc(Oc3ccnc(-c4cc(C(=O)NCCNC(=O)OC(C)(C)C)c[nH]4)c3)cc2F)c1` [Example 216, tert-butyl (2-{[(5-{4-[3-fluoro-4-({[(2-fluoro-5-methylphenyl)amino]carbonyl}amino)phenoxy]pyridin-2-yl}-1H-pyrrol-3-yl)carbonyl]amino}ethyl)carbamate], the IC50 in assay [1] was found to be 17 nM; on PDGFβ [3], 214 nM; against VEGFR1, 16 nM; on PDGFβ [2] it was 59 nM.

With `CCOC(=O)CN1CCN(C(=O)c2c[nH]c(-c3cc(Oc4ccc(NC(=O)Nc5cc(C)ccc5F)c(F)c4)ccn3)c2)CC1` [Example 219, ethyl {4-[(5-{4-[3-fluoro-4-({[(2-fluoro-5-methylphenyl)amino]carbonyl}amino)phenoxy]pyridin-2-yl}-1H-pyrrol-3-yl)carbonyl]piperazin-1-yl}acetate], the half-inhibitory concentration (IC50) in assay [1] was found to be 9 nM; on VEGFR1, 8 nM; on VEGFR2, 8 nM; against PDGFβ [2], 29 nM.

For the molecule `Cc1ccc(F)c(NC(=O)Nc2ccc(Oc3ccnc(-c4cc(C(=O)N5CCNCC5)c[nH]4)c3)cc2F)c1` [Example 221, 1-(2-fluoro-5-methylphenyl)-3-[2-fluoro-4-({2-[4-(piperazin-1-ylcarbonyl)-1H-pyrrol-2-yl]pyridin-4-yl}oxy)phenyl]urea], the IC50 in assay [1] was 11 nM; at VEGFR1, 7 nM; against VEGFR2, 15 nM; at PDGFβ [2], 19 nM.

For `Cc1ccc(F)c(NC(=O)Nc2ccc(Oc3ccnc(-c4cc(C(=O)OCCCN5CCOCC5)c[nH]4)c3)cc2F)c1` [Example 229, 3-morpholin-4-ylpropyl 5-{4-[3-fluoro-4-({[(2-fluoro-5-methylphenyl)amino]carbonyl}amino)phenoxy]pyridin-2-yl}-1H-pyrrole-3-carboxylate], the half-maximal inhibitory concentration (IC50) in assay [1] came to 11 nM; on VEGFR1 it was 11 nM; at VEGFR2, 13 nM; on PDGFβ [2], 9 nM.

For `CCOC(=O)CCNC(=O)c1c[nH]c(-c2cc(Oc3ccc(NC(=O)Nc4cc(C)ccc4F)c(F)c3)ccn2)c1` [Example 231, ethyl 3-{[(5-{4-[3-fluoro-4-({[(2-fluoro-5-methylphenyl)amino]carbonyl}amino)phenoxy]pyridin-2-yl}-1H-pyrrol-3-yl)carbonyl]amino}propanoate], the IC50 at PDGFβ [3] came out at 32 nM; against PDGFβ [2], 43 nM.

For the molecule `COC(=O)CN(CCCNC(=O)c1c[nH]c(-c2cc(Oc3ccc(NC(=O)Nc4cc(C)ccc4F)cc3)ccn2)c1)CC(=O)OC` [Example 232, dimethyl 2,2′-[(3-{[(5-{4-[4-({[(2-fluoro-5-methylphenyl)amino]carbonyl}amino)phenoxy]pyridin-2-yl}-1H-pyrrol-3-yl)carbonyl]amino}propyl)imino]diacetate], the IC50 in assay [1] was found to be 9 nM; against VEGFR1 it was 16 nM; against VEGFR2, 5 nM; on PDGFβ [2], 20 nM.

`Cc1cccc(NC(=O)Nc2ccc(Oc3ccnc(-c4cc(C(=O)NCCCO)c[nH]4)c3)cc2)c1` [Example 237]: the half-maximal inhibitory concentration (IC50) in assay [1] was 8 nM; on VEGFR1 it was 8 nM; against VEGFR2, 3 nM; at PDGFβ [2], 19 nM.

As to `Cc1ccc(F)c(NC(=O)Nc2ccc(Oc3ccnc(-c4cc(C(=O)NN)c[nH]4)c3)cc2)c1` [Example 241, 1-(2-fluoro-5-methylphenyl)-3-[4-({2-[4-(hydrazinocarbonyl)-1H-pyrrol-2-yl]pyridin-4-yl}oxy)phenyl]urea], the IC50 in assay [1] worked out at 10 nM; against VEGFR1, 19 nM; against VEGFR2, 4 nM; at PDGFβ [2], 27 nM.

Regarding `COC(=O)[C@@H]1CCCN1CCCNC(=O)c1c[nH]c(-c2cc(Oc3cc(C(=O)Nc4cc(C)ccc4F)ccc3F)ccn2)c1` [Example 243, methyl (2S)-1-{3-[({5-[4-(2-fluoro-5-{[(2-fluoro-5-methylphenyl)amino]carbonyl}phenoxy)pyridin-2-yl]-1H-pyrrol-3-yl}carbonyl)amino]propyl}pyrrolidine-2-carboxylate], the IC50 in assay [1] worked out at 16 nM; on VEGFR1, 39 nM; at VEGFR2, 5 nM; at PDGFβ [2], 80 nM.

Turning to `CCNC(=O)[C@H](CCC(=O)OC)NC(=O)c1c[nH]c(-c2cc(Oc3cc(C(=O)Nc4cc(C)ccc4F)ccc3F)ccn2)c1` [Example 261, methyl 5-(ethylamino)-4-[({5-[4-(2-fluoro-5-{[(2-fluoro-5-methylphenyl)amino]carbonyl}phenoxy)pyridin-2-yl]-1H-pyrrol-3-yl}carbonyl)amino]-5-oxopentanoate], the IC50 was determined as 12 nM in assay [1], 108 nM on PDGFβ [3] and 100 nM against PDGFβ [2].

With `COC(=O)CC[C@H](NC(=O)c1c[nH]c(-c2cc(Oc3ccc(NC(=O)Nc4cc(C)ccc4F)c(F)c3)ccn2)c1)C(=O)OC` [Example 270, dimethyl 2-{[(5-{4-[3-fluoro-4-({[(2-fluoro-5-methylphenyl)amino]carbonyl}amino)phenoxy]pyridin-2-yl}-1H-pyrrol-3-yl)carbonyl]amino}pentanedioate], the IC50 in assay [1] came to 7 nM; on VEGFR1, 8 nM; at VEGFR2, 8 nM; against PDGFβ [2], 18 nM.

Turning to `Cc1ccc(F)c(NC(=O)Nc2ccc(Oc3ccnc(-c4cc(C(=O)OCCCN5CCOCC5)c[nH]4)c3)cc2)c1` [Example 274, 3-morpholin-4-ylpropyl 5-{4-[4-({[(2-fluoro-5-methylphenyl)amino]carbonyl}amino)phenoxy]pyridin-2-yl}-1H-pyrrole-3-carboxylate], the IC50 in assay [1] was determined as 11 nM; at VEGFR1, 16 nM; on VEGFR2, 10 nM; against PDGFβ [2], 27 nM.

The term IC50 denotes the concentration at which inhibition is half-maximal.
